Data: patent publication US20130053381A1, “2,4-DIOXO-1,4-DIHYDRO-2H-QUINAZOLIN-3-YL-SULFONAMIDE DERIVATIVES” (NOVARTIS AG, priority 2010, published 2013)

What follows are compounds tested on OF1 mice (assay: Maximal electroshock test (MES Test)). Settings: Mus musculus, po; 50 mg/kg, p.o., pre-treatment time −1 h; read-out: %-Protection.
Assay type: in vivo
Method: Compounds of the invention were tested in OF1 mice using the maximal electroshock test (MES Test) described in detail by Schmutz et al., Naunyn-Schmiedeberg's Arch Pharmacol 1990, 342, 61-66. Briefly, generalized tonic-clonic convulsions of the hind extremities were induced by passing electrical current through temporal electrodes (50 Hz, 18 mA, 0.2s). […] 30 mg/kg carbamazepine was used as a positive control; mice were classified as protected by a compound If the duration of the seizure lasted only 3 second or less. Five mice were used for each treatment condition and the percentage of protected mice was used as readout (i.e. a compound could give 0%, 20%, 40%, 60%, 80% or 100% protection). Usually, compounds of the invention or their parents were given at a dose of 50 mg/kg, p.o., 1 hour prior to induction of convulsions (i.e. “pre-treatment time −1 h”).
ED50 values (ED: effective dose) were calculated using GraphPad Prism, v4.02. after shock administration, mouse blood was collected for determination of compounds' blood exposure.

| Compound | responders at 50 mg/kg |
| --- | --- |
| CCC(=O)N(n1c(=O)[nH]c2cc(C(C)C)c(-c3ccnn3C)cc2c1=O)S(C)(=O)=O [Example 3.12, N-[7-Isopropyl-6-(2-methyl-2H-pyrazol-3-yl)-2,4-dioxo-1,4-dihydro-2H-quinazolin-3-yl]-N-propionyl-methanesulfonamide] | 100% |
| CCCC(=O)N(n1c(=O)[nH]c2cc(C(C)C)c(-c3ccnn3C)cc2c1=O)S(C)(=O)=O [Example 3.13, N-Butyryl-N-[7-isopropyl-6-(2-methyl-2H-pyrazol-3-yl)-2,4-dioxo-1,4-dihydro-2H-quinazolin-3-yl]-methanesulfonamide] | 100% |
| CCCCCC(=O)N(n1c(=O)[nH]c2cc(C(C)C)c(-c3ccnn3C)cc2c1=O)S(C)(=O)=O [Example 3.14, N-Hexanoyl-N-[7-isopropyl-6-(2-methyl-2H-pyrazol-3-yl)-2,4-dioxo-1,4-dihydro-2H-quinazolin-3-yl]-methanesulfonamide] | 100% |
| CC(C)C(=O)N(n1c(=O)[nH]c2cc(C(C)C)c(-c3ccnn3C)cc2c1=O)S(C)(=O)=O [Example 3.16, N-Isobutyryl-N-[7-isopropyl-6-(2-methyl-2H-pyrazol-3-yl)-2,4-dioxo-1,4-dihydro-2H-quinazolin-3-yl]-methanesulfonamide] | 60% |
| CC(=O)OCC(=O)N(n1c(=O)[nH]c2cc(C(C)C)c(-c3ccnn3C)cc2c1=O)S(C)(=O)=O [Example 3.17, Acetic acid 2-{[7-isopropyl-6-(2-methyl-2H-pyrazol-3-yl)-2,4-dioxo-1,4-dihydro-2H-quinazolin-3-yl]-methanesulfonyl-amino}-2-oxo-ethyl ester] | 100% |
| CSCCC(=O)N(n1c(=O)[nH]c2cc(C(C)C)c(-c3ccnn3C)cc2c1=O)S(C)(=O)=O [Example 3.18, N-[7-Isopropyl-6-(2-methyl-2H-pyrazol-3-yl)-2,4-dioxo-1,4-dihydro-2H-quinazolin-3-yl]-N-(3-methylsulfanyl-propionyl)-methanesulfonamide] | 100% |
| CCOC(=O)N(n1c(=O)[nH]c2cc(C(C)C)c(-c3ccnn3C)cc2c1=O)S(C)(=O)=O [Example 3.19, [7-Isopropyl-6-(2-methyl-2H-pyrazol-3-yl)-2,4-dioxo-1,4-dihydro-2H-quinazolin-3-yl]-methanesulfonyl-carbamic acid ethyl ester] | 100% |
| CCCOC(=O)N(n1c(=O)[nH]c2cc(C(C)C)c(-c3ccnn3C)cc2c1=O)S(C)(=O)=O [Example 3.20, [7-Isopropyl-6-(2-methyl-2H-pyrazol-3-yl)-2,4-dioxo-1,4-dihydro-2H-quinazolin-3-yl]-methanesulfonyl-carbamic acid propyl ester] | 100% |
| CCCCOC(=O)N(n1c(=O)[nH]c2cc(C(C)C)c(-c3ccnn3C)cc2c1=O)S(C)(=O)=O [Example 3.21, [7-Isopropyl-6-(2-methyl-2H-pyrazol-3-yl)-2,4-dioxo-1,4-dihydro-2H-quinazolin-3-yl]-methanesulfonyl-carbamic acid butyl ester] | 100% |
| CCCCCCOC(=O)N(n1c(=O)[nH]c2cc(C(C)C)c(-c3ccnn3C)cc2c1=O)S(C)(=O)=O [Example 3.22, [7-Isopropyl-6-(2-methyl-2H-pyrazol-3-yl)-2,4-dioxo-1,4-dihydro-2H-quinazolin-3-yl]-methanesulfonyl-carbamic acid hexyl ester] | 100% |

Same assay, conditions: Mus musculus, po; Dose: 15 mg/kg, p.o. (footnote c), pre-treatment time −1 h; read-out: %-Protection

| Compound | responders at 15 mg/kg |
| --- | --- |
| CC(C)COC(=O)N(n1c(=O)[nH]c2cc(C(C)C)c(-c3ccnn3C)cc2c1=O)S(C)(=O)=O [Example 3.03, [7-Isopropyl-6-(2-methyl-2H-pyrazol-3-yl)-2,4-dioxo-1,4-dihydro-2H-quinazolin-3-yl]-methanesulfonyl-carbamic acid isobutyl ester] | 40% |
| CC(C)COC(=O)N(n1c(=O)c2cc(-c3ccnn3C)c(C(C)C)cc2n(C(=O)OCC(C)C)c1=O)S(C)(=O)=O [Example 3.04, 3-(Isobutoxycarbonyl-methanesulfonyl-amino)-7-isopropyl-6-(2-methyl-2H-pyrazol-3-yl)-2,4-dioxo-3,4-dihydro-2H-quinazoline-1-carboxylic acid isobutyl ester] | 20% |
| COC(=O)N(n1c(=O)[nH]c2cc(C(C)C)c(-c3ccnn3C)cc2c1=O)S(C)(=O)=O [Example 3.05, [7-Isopropyl-6-(2-methyl-2H-pyrazol-3-yl)-2,4-dioxo-1,4-dihydro-2H-quinazolin-3-yl]-methanesulfonyl-carbamic acid methyl ester] | 60% |
| CCOC(=O)CCC(=O)N(n1c(=O)[nH]c2cc(C(C)C)c(-c3ccnn3C)cc2c1=O)S(C)(=O)=O [Example 3.06, 4-{[7-Isopropyl-6-(2-methyl-2H-pyrazol-3-yl)-2,4-dioxo-1,4-dihydro-2H-quinazolin-3-yl]-methanesulfonyl-amino}-4-oxo-butyric acid ethyl ester] | 100% |
| CCOC(=O)CC(=O)N(n1c(=O)[nH]c2cc(C(C)C)c(-c3ccnn3C)cc2c1=O)S(C)(=O)=O [Example 3.07, 3-{[7-Isopropyl-6-(2-methyl-2H-pyrazol-3-yl)-2,4-dioxo-1,4-dihydro-2H-quinazolin-3-yl]-methanesulfonyl-amino}-3-oxo-propionic acid ethyl ester] | 80% |
| CCOC(=O)CCCC(=O)N(n1c(=O)[nH]c2cc(C(C)C)c(-c3ccnn3C)cc2c1=O)S(C)(=O)=O [Example 3.08, 5-{[7-Isopropyl-6-(2-methyl-2H-pyrazol-3-yl)-2,4-dioxo-1,4-dihydro-2H-quinazolin-3-yl]-methanesulfonyl-amino}-5-oxo-pentanoic acid ethyl ester] | 100% |
| CCCCC(=O)N(n1c(=O)[nH]c2cc(C(C)C)c(-c3ccnn3C)cc2c1=O)S(C)(=O)=O [Example 3.09, N-[7-Isopropyl-6-(2-methyl-2H-pyrazol-3-yl)-2,4-dioxo-1,4-dihydro-2H-quinazolin-3-yl]-N-pentanoyl-methanesulfonamide] | 100% |
| CC(=O)OC(C)(C)C(=O)N(n1c(=O)[nH]c2cc(C(C)C)c(-c3ccnn3C)cc2c1=O)S(C)(=O)=O [Example 3.10, Acetic acid 2-{[7-isopropyl-6-(2-methyl-2H-pyrazol-3-yl)-2,4-dioxo-1,4-dihydro-2H-quinazolin-3-yl]-methanesulfonyl-amino}-1,1-dimethyl-2-oxo-ethyl ester] | 40% |

Same assay, conditions: Mus musculus, po; Dose: 15 mg/kg, p.o., pre-treatment time −2 h (footnotes a,c); read-out: %-Protection

| Compound | responders at 15 mg/kg |
| --- | --- |
| CC(=O)OC(C)(C)C(=O)N(n1c(=O)c2cc(-c3ccnn3C)c(C(C)C)cc2n(C(=O)C(C)(C)OC(C)=O)c1=O)S(C)(=O)=O [Example 3.11, Acetic acid 2-[3-[(2-acetoxy-2-methyl-propionyl)-methanesulfonyl-amino]-7-isopropyl-6-(2-methyl-2H-pyrazol-3-yl)-2,4-dioxo-3,4-dihydro-2H-quinazolin-1-yl]-1,1-dimethyl-2-oxo-ethyl ester] | 40% |

Same assay, conditions: Mus musculus, sc; Dose: 25 mg/kg, s.c., pre-treatment time −4 h (footnote f); read-out: %-Protection

| Compound | responders at 25 mg/kg |
| --- | --- |
| CCCCCCCCCC(=O)N(n1c(=O)[nH]c2cc(C(C)C)c(-c3ccnn3C)cc2c1=O)S(C)(=O)=O [Example 3.15, N-Decanoyl-N-[7-isopropyl-6-(2-methyl-2H-pyrazol-3-yl)-2,4-dioxo-1,4-dihydro-2H-quinazolin-3-yl]-methanesulfonamide] | 20% |

Same assay, conditions: Mus musculus; dose of up to 50 mg/kg, p.o., 1 hour prior to induction of convulsions; read-out: %-Protection

| Compound | responders at 50 mg/kg |
| --- | --- |
| CCCCCCCCCC(=O)N(n1c(=O)[nH]c2cc(C(C)C)c(-c3ccnn3C)cc2c1=O)S(C)(=O)=O [Example 3.15, N-Decanoyl-N-[7-isopropyl-6-(2-methyl-2H-pyrazol-3-yl)-2,4-dioxo-1,4-dihydro-2H-quinazolin-3-yl]-methanesulfonamide] | 0% |
